Blank lines part the entries; values can stand above or below the compound they belong to.
Tests used:
[1] = Bioavailability in dog; format: ADME, organism-based, Canis lupus familiaris; conditions: in vivo
[2] = Protein binding in Beagle dog serum; format: ADME, cell-free, Canis lupus familiaris; conditions: read-out: PPB (converted)
[3] = AUC (0 to 24 hrs) in dog at 0.1 mg/kg, po by cassette assay; format: ADME, organism-based, Canis lupus familiaris; parameters: time < 24 hr, dose 0.1 mg/kg, route oral; conditions: plasma
[4] = molecular target: Beta-1 adrenergic receptor (Homo sapiens, UniProt P08588); test: Agonist activity at human recombinant beta-1 adrenergic receptor expressed in CHO cells assessed as cAMP accumulation by enzyme immuno assay; format: functional, cell-based
Sequence of Beta-1 adrenergic receptor (P08588 whole entry): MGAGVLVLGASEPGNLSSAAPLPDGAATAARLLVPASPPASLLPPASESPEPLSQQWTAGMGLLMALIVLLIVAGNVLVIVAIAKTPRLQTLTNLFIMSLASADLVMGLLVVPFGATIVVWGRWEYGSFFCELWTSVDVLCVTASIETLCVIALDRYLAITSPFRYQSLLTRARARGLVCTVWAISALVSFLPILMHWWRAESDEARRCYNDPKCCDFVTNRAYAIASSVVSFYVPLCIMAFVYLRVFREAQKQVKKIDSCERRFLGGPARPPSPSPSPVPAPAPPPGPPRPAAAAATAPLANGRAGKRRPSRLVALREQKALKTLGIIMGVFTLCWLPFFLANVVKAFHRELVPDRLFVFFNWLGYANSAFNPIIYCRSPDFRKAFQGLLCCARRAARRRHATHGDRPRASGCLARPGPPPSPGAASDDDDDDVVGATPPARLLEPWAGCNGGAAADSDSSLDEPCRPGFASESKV

[5] = Cmax in dog at 0.1 mg/kg, po by cassette assay; format: ADME, organism-based, Canis lupus familiaris; parameters: dose 0.1 mg/kg, route oral; conditions: in vivo
[6] = molecular target: Beta-3 adrenergic receptor (Homo sapiens, UniProt P13945); test: Agonist activity at human recombinant beta3 adrenergic receptor expressed in CHO cells assessed as cAMP accumulation by enzyme immuno assay; format: functional, cell-based
Sequence of Beta-3 adrenergic receptor (Homo sapiens, UniProt P13945) (P13945 whole entry): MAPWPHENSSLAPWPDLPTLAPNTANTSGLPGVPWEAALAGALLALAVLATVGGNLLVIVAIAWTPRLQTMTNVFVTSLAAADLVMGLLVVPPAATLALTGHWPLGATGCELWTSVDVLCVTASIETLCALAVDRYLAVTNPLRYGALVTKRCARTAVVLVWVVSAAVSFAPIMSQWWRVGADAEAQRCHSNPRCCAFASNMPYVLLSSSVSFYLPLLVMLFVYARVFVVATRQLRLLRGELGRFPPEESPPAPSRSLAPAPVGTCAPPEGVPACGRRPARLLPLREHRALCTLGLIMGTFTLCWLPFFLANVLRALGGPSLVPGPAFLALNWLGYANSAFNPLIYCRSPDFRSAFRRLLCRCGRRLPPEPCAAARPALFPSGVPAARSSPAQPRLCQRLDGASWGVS

[7] = Terminal half life in dog at 0.1 mg/kg, iv by cassette assay; format: ADME, organism-based, Canis lupus familiaris; parameters: dose 0.1 mg/kg, route intravenous; conditions: in vivo, read-out: beta t1/2 (converted)
[8] = Bioavailability in dog at 0.1 mg/kg, po by cassette assay; format: ADME, organism-based, Canis lupus familiaris; conditions: in vivo
[9] = Total clearance in dog at 0.1 mg/kg, iv by cassette assay; format: ADME, organism-based, Canis lupus familiaris; parameters: dose 0.1 mg/kg, route intravenous; conditions: in vivo
[10] = molecular target: Beta-2 adrenergic receptor (Homo sapiens, UniProt P07550); test: Agonist activity at human recombinant beta2 adrenergic receptor expressed in CHO cells assessed as cAMP accumulation by enzyme immuno assay; format: functional, cell-based
Sequence of Beta-2 adrenergic receptor (P07550 whole entry): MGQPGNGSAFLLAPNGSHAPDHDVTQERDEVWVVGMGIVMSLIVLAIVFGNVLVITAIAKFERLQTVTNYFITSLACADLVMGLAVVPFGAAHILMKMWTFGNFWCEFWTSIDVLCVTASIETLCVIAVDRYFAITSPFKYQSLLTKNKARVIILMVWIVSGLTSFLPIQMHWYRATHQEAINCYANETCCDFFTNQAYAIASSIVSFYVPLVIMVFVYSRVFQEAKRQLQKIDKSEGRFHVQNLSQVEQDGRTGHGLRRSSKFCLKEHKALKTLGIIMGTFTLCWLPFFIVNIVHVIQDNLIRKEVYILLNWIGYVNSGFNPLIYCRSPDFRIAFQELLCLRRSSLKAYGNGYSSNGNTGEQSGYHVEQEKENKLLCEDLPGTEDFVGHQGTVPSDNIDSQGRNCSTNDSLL

[11] = Cmax in monkey at 0.32 mg/kg, po by cassette assay; format: ADME, organism-based, Macaca mulatta; parameters: dose 0.32 mg/kg, route oral; conditions: rhesus monkey, in vivo
[12] = AUC (0 to 24 hrs) in dog at 0.1 mg/kg, po; format: ADME, organism-based, Canis lupus familiaris; parameters: time < 24 hr, dose 0.1 mg/kg, route oral; conditions: plasma
[13] = species on record: Canis familiaris; test: cells; conditions: Canis lupus familiaris, 3 h
Description: Inhibition of carbachol-induced increase in intravesical pressure in intraduodenally dosed Beagle dog OAB model for 180 mins

[14] = system: Rattus norvegicus; test: Terminal half life in rat at 0.34 mg/kg, iv by cassette assay; format: ADME, organism-based; parameters: dose 0.34 mg/kg, route intravenous; conditions: in vivo
[15] = AUC (0 to 24 hrs) in rat at 0.34 mg/kg, po by cassette assay; format: ADME, organism-based; parameters: time < 24 hr, dose 0.34 mg/kg, route oral; conditions: plasma
[16] = molecular target: Beta-3 adrenergic receptor (Canis lupus familiaris, UniProt O02662); test: Agonist activity at dog recombinant beta3 adrenergic receptor expressed in CHO cells assessed as cAMP accumulation by enzyme immuno assay; format: functional, cell-based
Sequence of Beta-3 adrenergic receptor (Canis lupus familiaris, UniProt O02662) (O02662 whole entry): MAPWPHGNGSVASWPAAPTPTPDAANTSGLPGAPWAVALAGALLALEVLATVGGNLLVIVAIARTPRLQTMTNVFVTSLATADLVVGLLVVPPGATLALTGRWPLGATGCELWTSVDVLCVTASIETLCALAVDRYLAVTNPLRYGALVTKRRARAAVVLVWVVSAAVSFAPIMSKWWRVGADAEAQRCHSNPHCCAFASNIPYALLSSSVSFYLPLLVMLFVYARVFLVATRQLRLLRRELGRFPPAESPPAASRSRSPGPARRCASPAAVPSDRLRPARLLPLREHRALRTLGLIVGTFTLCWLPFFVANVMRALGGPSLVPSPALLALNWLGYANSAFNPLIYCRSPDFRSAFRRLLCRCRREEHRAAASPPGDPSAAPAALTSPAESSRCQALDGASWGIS

[17] = Cmax in rat at 0.34 mg/kg, po by cassette assay; format: ADME, organism-based; parameters: dose 0.34 mg/kg, route oral; conditions: in vivo
[18] = Total clearance in rat at 0.34 mg/kg, iv by cassette assay; format: ADME, organism-based; parameters: dose 0.34 mg/kg, route intravenous; conditions: in vivo
[19] = Total clearance in monkey at 0.32 mg/kg, iv by cassette assay; format: ADME, organism-based, Macaca mulatta; parameters: dose 0.32 mg/kg, route intravenous; conditions: rhesus monkey, in vivo
[20] = Bioavailability in monkey at 0.32 mg/kg, po by cassette assay; format: ADME, organism-based, Macaca mulatta; conditions: rhesus monkey, in vivo
[21] = AUC (0 to 24 hrs) in monkey at 0.32 mg/kg, po by cassette assay; format: ADME, organism-based, Macaca mulatta; parameters: time < 24 hr, dose 0.32 mg/kg, route oral; conditions: rhesus monkey, plasma
[22] = Total clearance in dog at 0.1 mg/kg, iv; format: ADME, organism-based, Canis lupus familiaris; parameters: dose 0.1 mg/kg, route intravenous; conditions: in vivo
[23] = system: Rattus norvegicus; test: Bioavailability in rat at 0.34 mg/kg, po by cassette assay; format: ADME, organism-based; conditions: in vivo
[24] = Terminal half life in monkey plasma at 0.32 mg/kg, iv by cassette assay; format: ADME, organism-based, Macaca mulatta; parameters: dose 0.32 mg/kg, route intravenous; conditions: rhesus monkey, read-out: beta t1/2 (converted)
[25] = Terminal half life in dog at 0.1 mg/kg, iv; format: ADME, organism-based, Canis lupus familiaris; parameters: dose 0.1 mg/kg, route intravenous; conditions: in vivo, read-out: beta t1/2 (converted)
[26] = Bioavailability in dog at 0.1 mg/kg, po; format: ADME, organism-based, Canis lupus familiaris; conditions: in vivo
[27] = Cmax in dog at 0.1 mg/kg, po; format: ADME, organism-based, Canis lupus familiaris; parameters: dose 0.1 mg/kg, route oral; conditions: in vivo
[28] = Bioavailability in Beagle dog at 0.1 mg/kg, po by cassette assay; format: ADME, organism-based, Canis lupus familiaris; conditions: in vivo
[29] = Total clearance in Beagle dog at 0.1 mg/kg, iv by cassette assay; format: ADME, organism-based, Canis lupus familiaris; parameters: dose 0.1 mg/kg, route intravenous; conditions: in vivo
[30] = Volume of distribution at steady state in Beagle dog at 0.1 mg/kg, iv by cassette assay; format: ADME, organism-based, Canis lupus familiaris; parameters: dose 0.1 mg/kg, route intravenous; conditions: in vivo, read-out: Vdss
[31] = AUC (0 to 24 hrs) in Beagle dog at 0.1 mg/kg, iv by cassette assay; format: ADME, organism-based, Canis lupus familiaris; parameters: time < 24 hr, dose 0.1 mg/kg, route intravenous; conditions: plasma
[32] = Terminal half life in Beagle dog at 0.1 mg/kg, iv by cassette assay; format: ADME, organism-based, Canis lupus familiaris; parameters: dose 0.1 mg/kg, route intravenous; conditions: in vivo, read-out: beta t1/2 (converted)
[33] = AUC (0 to 2 hrs) in Beagle dog at 0.1 mg/kg, po by cassette assay; format: ADME, organism-based, Canis lupus familiaris; parameters: time < 2 hr, dose 0.1 mg/kg, route oral; conditions: plasma

Compound: CC(C)Oc1cc(-c2ccc(C[C@@H](C)NC[C@H](O)c3cccnc3)cc2)ccc1C(=O)O
EC50 [4]: 80 nM
EC50 [6]: 0.099 nM
EC50 [10]: > 1000 nM

Compound: CCCOc1cc(-c2ccc(CCN[C@@H](C)[C@H](O)c3ccccc3)cc2)ccc1C(=O)O
EC50 [4]: 690 nM
EC50 [6]: 0.43 nM
EC50 [10]: > 10000 nM

Compound: CC(C)COc1cc(-c2ccc(C[C@@H](C)NC[C@H](O)c3ccccc3)cc2)ccc1C(=O)O
bioavailability [28]: 0.4%
EC50 [4]: 130 nM
clearance [29]: 39 mL/min/kg
EC50 [6]: 0.041 nM
Vd [30]: 30.8 L/kg
AUC(0-t) at 24 h [31]: 44.5 ng·h/mL
half-life [32]: 17.7 h
AUC(0-t) at 2 h [33]: 0.2 ng·h/mL

Compound: CC(C)Cc1cc(-c2ccc(OCCNC[C@H](O)c3ccc(N)nc3)cc2)ccc1C(=O)O
AUC(0-t) at 24 h [3]: 38.2 ng·h/mL
EC50 [4]: 12 nM
Cmax [5]: 11.6 ng/mL
EC50 [6]: 0.059 nM
half-life [7]: 9.5 h
bioavailability [8]: 34.8%
clearance [9]: 14.2 mL/min/kg

Second part, led by results:

bioavailability [1]: 0%
Compound: O=C(O)c1ccc(-c2ccc(CCNC[C@H](O)c3cccc(Cl)c3)cc2)cc1OC1CCCCC1

fraction unbound [2]: 0.14
Compound: CC(C)Oc1cc(-c2ccc(CCNC[C@H](O)c3ccccc3)cc2)ccc1C(=O)O

bioavailability [1]: 58%
Compound: COc1cc(-c2ccc(CCNC[C@H](O)c3cccc(Cl)c3)cc2)ccc1C(=O)O

AUC(0-t) at 24 h [3]: 420 ng·h/mL
EC50 [4]: 120 nM
Cmax [5]: 40.6 ng/mL
EC50 [6]: 0.21 nM
half-life [7]: 10.9 h
bioavailability [8]: 69.7%
clearance [9]: 2.9 mL/min/kg
Compound: CCCOc1cc(-c2ccc(OCCNC[C@H](O)c3cccc(Cl)c3)cc2)ccc1C(=O)O

Cmax [11]: 178 ng/mL
AUC(0-t) at 24 h [12]: 134 ng·h/mL
EC50 [4]: 780 nM
EC50 [13]: 9.5 nM
beta t1/2 [14]: 8.2 h
AUC(0-t) at 24 h [15]: 880 ng·h/mL
EC50 [16]: 3.7 nM
EC50 [6]: 0.81 nM
Cmax [17]: 125 ng/mL
clearance [18]: 6.8 mL/min/kg
clearance [19]: 2.5 mL/min/kg
fraction unbound [2]: 0.14
bioavailability [20]: 88.2%
AUC(0-t) at 24 h [21]: 1800 ng·h/mL
clearance [22]: 7.3 mL/min/kg
bioavailability [23]: 100%
half-life [24]: 29 h
half-life [25]: 14.3 h
bioavailability [26]: 63.9%
EC50 [10]: > 10000 nM
Cmax [27]: 7.4 ng/mL
Compound: CC(C)Oc1cc(-c2ccc(CCN[C@@H](C)[C@H](O)c3ccccc3)cc2)ccc1C(=O)O
ED50 [13]: 0.02 mg/kg
